Values of other authors in patent US9034614B2, “Method of preparing alkyl butyrate from fermented liquid using microorganisms” (priority 2010, dated 2015).
Values after ≈ are worked out from the molar mass of the structure shown. Where two headings read alike, the source gives them in different places.

| SMILES | Solubility in water [µg/mL] | Solubility in water (stated in words) |
| --- | --- | --- |
| CCCC(=O)OCC [Ethyl butyrate] | 4900 (≈ 42.2 mM) | – |
| CCO [Ethanol, reference compound] | – | Miscible |
| CCCCOC(=O)CCC [Butyl butyrate] | – | Insoluble |
